Measurements: patent US12257263B2, “Pharmaceutical compositions for demodex related blepharitis and eyelid crusting” (Tarsus Pharmaceuticals, Inc., priority 2014, dated 2025)
Like-named read-outs stand apart in the source and are kept apart here.

Experiments:
eyes of six rabbits = conditions: cited from earlier work
rabbit eyes = conditions: cited from earlier work
[1] = approximately 0.5% to 1% added to balanced salt solutions; cited from earlier work
skin = conditions: 6-day cumulative, cited from earlier work
human subjects = conditions: formulation containing 7.6% of Ethylhexyl Stearate, cited from earlier work
rabbit's eyes = conditions: cited from earlier work
rabbit skin = conditions: undiluted test material; cited from earlier work
demodex mites = assay: Presence of demodex mites in eyelash follicles of treated patients; format: in vivo, demodex folliculorum
[2] = tested on: Demodex folliculorum-associated Oculocutaneous Rosacea; conditions: oral, child, JAMA Dermatol 2014; cited from earlier work
[3] = tested on: New Zealand white albino rabbits; conditions: undiluted, groups of 6 rabbits; cited from earlier work
eye = conditions: human, in vivo
Experimental: As this invention is to be used topically, good absorption is achieved by using Propylene Glycol as a solvent for the ivermectin. According to the Cosmetic Ingredients Report Panel Meeting on Jun. 28-29, 2010, the ocular irritation of Propylene Glycol was determined using groups of 6 males and female New Zealand white albino rabbits.

Cc1c(C)c2c(c(C)c1O)CCC(C)(CCCC(C)CCCC(C)CCCC(C)C)O2 (racemic) [dl-α-tocopherol]
conjunctival irritation (redness) (eyes of six rabbits; rabbit, in vivo): Weak to moderate conjunctival irritation
time by which conjunctival irritation subsided (eyes of six rabbits; rabbit, in vivo): ≤ 7 days
corneal changes (eyes of six rabbits; undiluted, six rabbits, eyes not rinsed): No corneal changes

O=C([O-])CN(CCN(CC(=O)[O-])CC(=O)O)CC(=O)O.[Na+].[Na+] [Disodium EDTA, disodium EDTA]
mucous membrane irritation classification (rabbit eyes): non-irritant

O=C(O)CN(CCN(CC(=O)O)CC(=O)O)CC(=O)O [EDTA, Ethylenediaminetetraacetic acid]
toxicity [1]: not toxic

CCCCCCCCCCCCCCCCCC(=O)OCC(CC)CCCC (centres unmarked) [Ethylhexyl Stearate]
mean maximum irritation index (MMII) (skin; 10% aqueous solution): 0.33
skin tolerance (skin; 10% aqueous solution): relatively well tolerated
mean maximum irritation index (MMII) (skin; undiluted test material): 0.67
skin tolerance (skin; undiluted test material): poorly tolerated
phototoxicity (human subjects; 10 subjects): not phototoxic
photosensitisation (human subjects; 27 subjects, some slight reactions reported): not a photosensitizer
irritation and sensitization (human subjects; 56 subjects): not an irritant or sensitizer
eye injury (rabbit's eyes; undiluted test material): did not provoke any significant injury
max Primary irritation Index (PII) (rabbit's eyes; undiluted, out of 100, at 1 h): 4.67
skin irritation (rabbit skin): at most mildly irritating

CC[C@H](C)[C@H]1O[C@]2(CC[C@@H]1C)C[C@@H]1C[C@@H](C/C=C(\C)[C@@H](O[C@H]3C[C@H](OC)[C@@H](O[C@H]4C[C@H](OC)[C@@H](O)[C@H](C)O4)[C@H](C)O3)[C@@H](C)/C=C/C=C3\CO[C@@H]4[C@H](O)C(C)=C[C@@H](C(=O)O1)[C@]34O)O2 [Ivermectin (Stromectol), ivermectin]
demodex mites (demodex mites; Example 2 patient, oral 12 mg plus 4 subsequent doses, with Tea Tree Oil eyelid scrubs twice a day, over 2 months): reduced in numbers but were not completely eliminated
elimination of demodex mites (demodex mites; oral, a single dose, applicant's experience): does not eliminate the demodex mites
treatment outcome [2]: successfully treated

CC(O)CO (centres unmarked) [Propylene Glycol]
ocular irritation [3]: slight eye irritant
eye irritation (eye): non-irritating
